Measurements from patent US20260285850A1, “SUBSTITUTED OXAZOLIDINONES AND IMIDAZOLINONES AS HERBICIDES” (FMC CORPORATION, priority 2023, published 2026).

Columns and labels:
Assay type in all cases: in vivo
[1] = tested on: green foxtail (Setaria viridis); assay: Test A preemergence soil spray, visual injury rating 0-100; settings: 10 days, 0 = no effect, 100 = complete control
Outline: (§1)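 Grow plants in loam soil blended with sand. Apply formulated compound (non-phytotoxic solvent, surfactant) as a directed soil spray before emergence, or to plants at the one- to two-leaf stage after emergence. Hold in greenhouse 10 days, then rate injury visually versus untreated controls on a 0-100 scale.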

[2] = tested on: blackgrass (Alopecurus myosuroides); assay: as above; settings: 10 days, 0 = no effect, 100 = complete control
Outline: as §1

[3] = tested on: ryegrass, Italian (italian ryegrass, Lolium multiflorum); assay: as above; settings: 10 days, 0 = no effect, 100 = complete control
Outline: as §1

[4] = tested on: wheat (Triticum aestivum); assay: as above; settings: 10 days, 0 = no effect, 100 = complete control
Outline: as §1

[5] = tested on: ragweed (common ragweed, Ambrosia artemisiifolia); assay: as above; settings: 10 days, 0 = no effect, 100 = complete control
Outline: as §1

[6] = tested on: oat, wild (wild oat, Avena fatua); assay: as above; settings: 10 days, 0 = no effect, 100 = complete control
Outline: as §1

[7] = tested on: barnyardgrass (Echinochloa crus-galli); assay: as above; settings: 10 days, 0 = no effect, 100 = complete control
Outline: as §1

corn (Zea mays) [8] = assay: as above; settings: 10 days, 0 = no effect, 100 = complete control
Outline: as §1

soybean (Glycine max) [9] = assay: as above; settings: 10 days, 0 = no effect, 100 = complete control
Outline: as §1

[10] = tested on: palmer (palmer amaranth, palmer pigweed, Amaranthus palmeri); assay: as above; settings: 10 days, 0 = no effect, 100 = complete control
Outline: as §1

kochia (Bassia scoparia) [11] = assay: as above; settings: 10 days, 0 = no effect, 100 = complete control
Outline: as §1

[12] = tested on: galium (catchweed bedstraw, Galium aparine); assay: Test A postemergence application, visual injury rating 0-100; settings: Postemergence, 10 days, 0 is no effect, 100 is complete control
Outline: as §1

[13] = tested on: green foxtail (Setaria viridis); assay: as above; settings: Postemergence, 10 days, 0 is no effect, 100 is complete control
Outline: as §1

[14] = tested on: blackgrass (Alopecurus myosuroides); assay: as above; settings: Postemergence, 10 days, 0 is no effect, 100 is complete control
Outline: as §1

[15] = tested on: ryegrass, Italian (italian ryegrass, Lolium multiflorum); assay: as above; settings: Postemergence, 10 days, 0 is no effect, 100 is complete control
Outline: as §1

[16] = tested on: wheat (Triticum aestivum); assay: as above; settings: Postemergence, 10 days, 0 is no effect, 100 is complete control
Outline: as §1

[17] = tested on: ragweed (common ragweed, Ambrosia artemisiifolia); assay: as above; settings: Postemergence, 10 days, 0 is no effect, 100 is complete control
Outline: as §1

[18] = tested on: oat, wild (wild oat, Avena fatua); assay: as above; settings: Postemergence, 10 days, 0 is no effect, 100 is complete control
Outline: as §1

[19] = tested on: barnyardgrass (Echinochloa crus-galli); assay: as above; settings: Postemergence, 10 days, 0 is no effect, 100 is complete control
Outline: as §1

corn (Zea mays) [20] = assay: as above; settings: Postemergence, 10 days, 0 is no effect, 100 is complete control
Outline: as §1

soybean (Glycine max) [21] = assay: as above; settings: Postemergence, 10 days, 0 is no effect, 100 is complete control
Outline: as §1

[22] = tested on: horseweed (Erigeron canadensis); assay: as above; settings: Postemergence, 10 days, 0 is no effect, 100 is complete control
Outline: as §1

[23] = tested on: palmer (palmer amaranth, palmer pigweed, Amaranthus palmeri); assay: as above; settings: Postemergence, 10 days, 0 is no effect, 100 is complete control
Outline: as §1

kochia (Bassia scoparia) [24] = assay: as above; settings: Postemergence, 10 days, 0 is no effect, 100 is complete control
Outline: as §1

rice (Oryza sativa) = assay: Test B flooded paddy test, visual plant response rating 0-100; settings: 250 g ai/ha, Flood, applied to paddy water, evaluated after 13 days
Outline: (§2)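 In this flooded assay, 2-leaf seedlings received compound through the water layer, kept at 3 cm over the soil. Plants were held 13 days in a greenhouse and then visually compared with control pots.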

[25] = tested on: barnyardgrass (Echinochloa crusgalli); assay: as above; settings: 250 g ai/ha, Flood, applied to paddy water, evaluated after 13 days
Outline: as §2

[26] = tested on: sedge, umbrella (small-flower umbrella sedge, Cyperus difformis); assay: as above; settings: 250 g ai/ha, Flood, applied to paddy water, evaluated after 13 days
Outline: as §2

[27] = tested on: ducksalad (Heteranthera limosa); assay: as above; settings: 250 g ai/ha, Flood, applied to paddy water, evaluated after 13 days
Outline: as §2

In the case of `CC(C)OC(=O)C1C=CC(NC(=O)C2(C)CN(c3cc(Cl)cc(Cl)c3)C(=O)O2)C1` (stereo not shown) [Compound 43], the “Foxtail, Green plant response rating (0 to 100 scale)” value (“Foxtail, Green plant response rating” below) ([1]; 125 g ai/ha) is reported as 90, the “Foxtail, Green plant response rating” value ([1]; 500 g ai/ha) is reported as 100 and the “Blackgrass plant response rating (0 to 100 scale)” value (“Blackgrass plant response rating” below) ([2]; 125 g ai/ha) is reported as 90. The “Blackgrass plant response rating” value ([2]; 500 g ai/ha) was 100, the “Ryegrass, Italian plant response rating (0 to 100 scale)” value (“Ryegrass, Italian plant response rating” below) ([3]; 125 g ai/ha) was 90 and the “Ryegrass, Italian plant response rating” value ([3]; 500 g ai/ha) was 90. The “Wheat plant response rating (0 to 100 scale)” value (shortened to “Wheat plant response rating”) ([4]; 125 g ai/ha) was 90, the “Wheat plant response rating” value ([4]; 500 g ai/ha) was 90 and the “Ragweed plant response rating (0 to 100 scale)” value (“Ragweed plant response rating” for short) ([5]; 125 g ai/ha) was 30. The “Ragweed plant response rating” value ([5]; 500 g ai/ha) was 80, the “Oat, Wild plant response rating (0 to 100 scale)” value (from here on “Oat, Wild plant response rating”) ([6]; 125 g ai/ha) was 90 and the “Oat, Wild plant response rating” value ([6]; 500 g ai/ha) was 90. For the same molecule, the “Barnyardgrass plant response rating (0 to 100 scale)” value (“Barnyardgrass plant response rating” below) ([7]; 125 g ai/ha) was 100, the “Barnyardgrass plant response rating” value ([7]; 500 g ai/ha) was 100 and the “Corn plant response rating (0 to 100 scale)” value (shortened to “Corn plant response rating”) (corn (Zea mays) [8]; 125 g ai/ha) was 80. For the same molecule, the “Corn plant response rating” value (corn (Zea mays) [8]; 500 g ai/ha) was 90, the “Soybean plant response rating (0 to 100 scale)” value (“Soybean plant response rating” below) (soybean (Glycine max) [9]; 125 g ai/ha) was 40 and the “Soybean plant response rating” value (soybean (Glycine max) [9]; 500 g ai/ha) was 60. For the same molecule, the “Amaranth, Palmer plant response rating (0 to 100 scale)” value ([10]; 125 g ai/ha) was 100, the “Amaranth, Palmer plant response rating (0 to 100 scale)” value ([10]; 500 g ai/ha) was 100 and the “Kochia plant response rating (0 to 100 scale)” value (“Kochia plant response rating” for short) (kochia (Bassia scoparia) [11]; 125 g ai/ha) was 80. The “Kochia plant response rating” value (kochia (Bassia scoparia) [11]; 500 g ai/ha) was 90, the “Galium plant response rating (0 to 100 scale)” value ([12]; 125 g ai/ha) was 70 and the “Galium plant response rating (0 to 100 scale)” value ([12]; 500 g ai/ha) was 70. For the same molecule, the “Foxtail, Green plant response rating” value ([13]; 125 g ai/ha) was 90, the “Foxtail, Green plant response rating” value ([13]; 500 g ai/ha) was 90 and the “Blackgrass plant response rating” value ([14]; 125 g ai/ha) was 100. The “Blackgrass plant response rating” value ([14]; 500 g ai/ha) was 100, the “Ryegrass, Italian plant response rating” value ([15]; 125 g ai/ha) was 90 and the “Ryegrass, Italian plant response rating” value ([15]; 500 g ai/ha) was 90. The “Wheat plant response rating” value ([16]; 125 g ai/ha) was 90, the “Wheat plant response rating” value ([16]; 500 g ai/ha) was 90 and the “Ragweed plant response rating” value ([17]; 125 g ai/ha) was 60. The “Ragweed plant response rating” value ([17]; 500 g ai/ha) was 80, the “Oat, Wild plant response rating” value ([18]; 125 g ai/ha) was 90 and the “Oat, Wild plant response rating” value ([18]; 500 g ai/ha) was 90. For the same molecule, the “Barnyardgrass plant response rating” value ([19]; 125 g ai/ha) was 100, the “Barnyardgrass plant response rating” value ([19]; 500 g ai/ha) was 100 and the “Corn plant response rating” value (corn (Zea mays) [20]; 125 g ai/ha) was 100. The “Corn plant response rating” value (corn (Zea mays) [20]; 500 g ai/ha) was 100, the “Soybean plant response rating” value (soybean (Glycine max) [21]; 125 g ai/ha) was 80 and the “Soybean plant response rating” value (soybean (Glycine max) [21]; 500 g ai/ha) was 80. The “Horseweed plant response rating (0 to 100 scale)” value ([22]; 125 g ai/ha) was 60, the “Horseweed plant response rating (0 to 100 scale)” value ([22]; 500 g ai/ha) was 80 and the “Amaranth, Palmer / Pigweed, Palmer plant response rating (0 to 100 scale)” value ([23]; 125 g ai/ha) was 100. The “Amaranth, Palmer / Pigweed, Palmer plant response rating (0 to 100 scale)” value ([23]; 500 g ai/ha) was 100, the “Kochia plant response rating” value (kochia (Bassia scoparia) [24]; 125 g ai/ha) was 80 and the “Kochia plant response rating” value (kochia (Bassia scoparia) [24]; 500 g ai/ha) was 80. The “Plant response rating, Rice (0 to 100 scale, 0 is no effect and 100 is complete control)” value (rice (Oryza sativa)) was 20, the “Plant response rating, Barnyardgrass (0 to 100 scale, 0 is no effect and 100 is complete control)” value [25] was 85 and the “Plant response rating, Sedge, Umbrella (0 to 100 scale, 0 is no effect and 100 is complete control)” value [26] was 95. For the same molecule, the “Plant response rating, Ducksalad (0 to 100 scale, 0 is no effect and 100 is complete control)” value [27] was 90.
